Assay results published in US20220324868A1, “Pyrazolone-Fused Pyrimidine Compound, and Preparation Method and Use Therefor” (SHANGHAI PHARMACEUTICALS HOLDING CO., LTD., priority 2019, published 2022).
Where a name gives a salt, the structure may show the parent alone. Read-outs that look alike come from different tables or passages of the source.

Columns and labels:
COLO 205 cells = experiment: Proliferation inhibition of COLO 205 cells (Luminescence ATP Detection, ATPlite); type: cell-based; details: Homo sapiens; p53-deficient cell line COLO 205, 72 hours
Description: (§1) I. Proliferation Inhibitory of the Compound on COLO 205 Cells and Hela Cells.
(§2) COLO205 cells, purchased from SIBS, generation P11; Hela purchased from ATCC, generation P13.
(§3) Drug treatment of cells: on the third day of the experiment, microplates were removed from the incubator, 9× compound were added to each well in the microplate, and 5 μL was added to each well, wherein there were 2 replicate wells for each drug concentration and 10 drug concentrations for each compound. According to different cell lines, the initial concentration of each compound was different, after the completion, the microplate was cultured at 37° C. and 5% CO2 for 72 hours.
(§4) Data collection: The microplates were removed from the incubator and equilibrated at room temperature for 30 minutes. 100 μL of ATPlite reaction mixture after room temperature equilibrium was added to each well, the solution was shaken at room temperature of 1300 rpm for 2 minutes, and then the microplate was placed in a HERAEUS Multifuge X1R centrifuge at 2000 rpm for 1 minute; after equilibrium at room temperature for 10 minutes, the fluorescence signal value was measured on EnVision™.
(§5) Calculation of cell viability: Cell viability(%)=signal value of administration/signal value of controlx 100%. Graphpad Prism 5.0 was used to fit Log(inhibitor) vs. response-Variable slope (four parameters) curves to the fluorescence signal values at each concentration, and the corresponding IC50 (half maximal inhibitory concentration) was calculated.

Hela cells = experiment: Proliferation inhibition of Hela cells (Luminescence ATP Detection, ATPlite); type: cell-based; details: Homo sapiens, 72 hours
Description: as §1, §2
Cell culture and inoculation: on the first day of the experiment, cells in normal culture were taken in their exponential growth state, digested and dispersed, the cell density was adjusted to 9×10^3 cells/mL, and 40 μL per well were inoculated into 384-well cell culture plates; after inoculation was completed, the microplates were placed at 37° C. and 5% CO2 for incubation.
as §3, with “second” for “third”
as §4, with “the” for “The”, “40” for “100”
as §5

WEE1 kinase = target: T1, WEE1 kinase (Homo sapiens, UniProt P30291); experiment: Inhibitory effect on WEE1 kinase in vitro (ELISA); type: biochemical; details: ATP concentration of Km (12 μM), WEE1 0.15 ng/μL, 60 min
T1 construct: purchased CarnaBiosciences, Inc. 05-177
Description: I. Inhibitory Effect of Compound on WEE1 Kinase In Vitro
The tested compounds were screened on WEE1 kinase with ATP concentration of Km by ELISA. Three compounds were screened on WEE1 kinase to evaluate the kinase inhibitory activity of the tested compounds. In the detection process, the initial concentration of the tested compounds was all selected as 100 nM, and each compound was selected with 6 gradient dilution concentrations, the gradient dilution ratio was 4-fold, and two replicate wells were detected for each concentration, MK1775 was used as the standard control.
1. Coating substrate: 1) An appropriate volume of substrate storage solution protein tyrosinase (PTK) substrate (poly-Glu-Tyr) was taken, diluted 10 times with PBS, and the concentration was diluted from […]. The mixture was added to a high adsorption 96-well plate at 125 μL per well. The plate was placed in an incubator at 37° C. for overnight coating. 2) After 24 hours, the 96-well plate was taken out, the liquid in the 96-well plate was poured out, cleaned with washing buffer for 3 times, and the incubator at 37 was inverted and dried for 2 hours.
3. Enzyme reaction stage: 1) WEE1 kinase and ATP were prepared into 2× enzyme solution and 4× ATP solution respectively with 1× reaction buffer.
4. Reaction termination stage: 1) the reaction mixture in the plate was poured out, 200 μL of washing buffer was added to each well, and washed for 5 times; the primary antibody P-Tyr (PY99) (dilution ratio 1:2000) was added, 100 μL per well, at room temperature for 30 min. 2) The primary antibody in the plate was poured out, 200 μL of washing buffer was added to each well, and washed for 5 times; the second antibody Anti-mouse IgG HRP-linked Antibody (dilution ratio 1:2000) was added, 100 μL per well, at room temperature for 30 min. 3) The secondary antibody in the plate was poured out, washed 5 times with washing buffer, and TMB was added, 100 μL per well, and colored for 10-30 min, depending on the color depth. The reaction was terminated with 1N sulfuric acid before reading.
5. […] 2) Graphpad Prism 5.0 was used to fit Log(inhibitor) vs. response-Variable slope (four parameters) curves to the data, and the corresponding IC50 (half maximal inhibitory concentration) was calculated.

T1 sequence (P30291 whole entry): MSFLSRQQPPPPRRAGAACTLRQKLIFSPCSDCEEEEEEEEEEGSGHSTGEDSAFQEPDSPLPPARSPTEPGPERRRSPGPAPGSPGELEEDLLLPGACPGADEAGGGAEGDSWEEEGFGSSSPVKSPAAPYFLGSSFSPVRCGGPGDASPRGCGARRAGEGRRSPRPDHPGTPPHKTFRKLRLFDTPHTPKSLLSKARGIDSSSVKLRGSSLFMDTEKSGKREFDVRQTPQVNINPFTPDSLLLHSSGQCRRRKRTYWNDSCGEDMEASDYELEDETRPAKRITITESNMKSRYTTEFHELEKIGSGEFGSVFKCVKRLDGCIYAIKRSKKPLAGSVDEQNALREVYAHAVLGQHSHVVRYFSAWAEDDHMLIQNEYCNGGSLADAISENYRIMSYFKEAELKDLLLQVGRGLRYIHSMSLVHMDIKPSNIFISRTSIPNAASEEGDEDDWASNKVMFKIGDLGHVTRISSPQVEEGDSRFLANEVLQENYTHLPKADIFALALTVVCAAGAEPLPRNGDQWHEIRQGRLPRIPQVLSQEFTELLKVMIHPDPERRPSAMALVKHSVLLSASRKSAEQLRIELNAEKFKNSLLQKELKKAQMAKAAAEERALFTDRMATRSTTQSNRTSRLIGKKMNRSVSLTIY

IC50 (COLO 205 cells) [nM] | IC50 (Hela cells) [nM] | IC50 (WEE1 kinase; read-out: WEE1 IC50) [nM] | SMILES | IC50 (WEE1 kinase; WEE1 IC50, nM) [nM]
541 | 148 | 4.79 | C=CCn1c(=O)c2cnc(Nc3ccc(N4C[C@H]5CN(C)C[C@H]5C4)cc3)nc2n1-c1ccc2c(n1)C(C)(O)CCC2 (stereo partly drawn) [Compound I-32, 2-allyl-1-(8-hydroxy-8-methyl-5,6,7,8-tetrahydroquinolin-2-yl)-6-((4-((3aR,6aS)-5-methylhexahydropyrrolo[3,4-c]pyrrole-2(1H)-yl)phenyl)amino)-1,2-dihydro-3H-pyrazolo[3,4-d]pyrimidin-3-one] | 
 |  | 11.8 | C=CCn1c(=O)c2cnc(Nc3ccc(N4C[C@H]5CN(CC)C[C@H]5C4)cc3)nc2n1-c1ccc2c(n1)C(O)CC2 (stereo partly drawn) [Compound I-37] | 
 |  | 6.6 | C=CCn1c(=O)c2cnc(Nc3ccc([C@H]4CC[C@@H](N(C)C)CC4)cc3)nc2n1-c1ccc2c(n1)C(O)CC2 (single isomer, unassigned) [Compound I-30-2] | 
 |  | 3.55 | C=CCn1c(=O)c2cnc(Nc3ccc(N4CCC5(CCNC5)CC4)cc3)nc2n1-c1ccc2c(n1)C(O)CCC2 (stereo not drawn) [Compound I-22] | 
 |  | 5.75 | C=CCn1c(=O)c2cnc(Nc3ccc(N4CCC5(CC4)CNC5)cc3)nc2n1-c1ccc2c(n1)C(O)CCC2 (stereo not drawn) [Compound I-21, 6-((4-(2,7-diazaspiro[3.5]nonan-7-yl)phenyl)amino)-2-allyl-1-(8-hydroxy-5,6,7,8-tetrahydroquinolin-2-yl)-1,2-dihydro-3H-pyrazolo[3,4-d]pyrimidin-3-one] | 
 |  | 11.3 | C=CCn1c(=O)c2cnc(Nc3ccc(N4CCC5(CC4)CN(C)C5)cc3)nc2n1-c1ccc2c(n1)C(O)CC2 (stereo not drawn) [Compound I-8] | 
 |  | 5.86 | C=CCn1c(=O)c2cnc(Nc3ccc([C@H]4CC[C@@H](N(C)C)CC4)cc3)nc2n1-c1ccc2c(n1)C(O)CC2 (single isomer, unassigned) [Compound I-30-1] | 
886 | 190 | 3.41 | C=CCn1c(=O)c2cnc(Nc3ccc(N4CCC5(CC4)CN(C)C5)cc3)nc2n1-c1ccc2c(n1)C(C)(O)CC2 (stereo not drawn) [Compound I-13, 2-allyl-1-(7-hydroxy-7-methyl-6,7-dihydro-5H-cyclopenta[b]pyridin-2-yl)-6-((4-(2-methyl-2,7-diazaspiro[3.5]nonan-7-yl)phenyl)amino)-1,2-dihydro-3H-pyrazolo[3,4-d]pyrimidin-3-one] | 
 |  | 4.05 | C=CCn1c(=O)c2cnc(Nc3ccc(N4CC5CC4CN5)cc3)nc2n1-c1ccc2c(n1)C(O)CCC2 (stereo not drawn) [Compound I-25] | 
1740 | 345 | 2.55 | C=CCn1c(=O)c2cnc(Nc3ccc(N4CCN(CC)CC4)cc3)nc2n1-c1ccc2c(n1)C(O)CC2 (stereo not drawn) [Compound I-2] | 
 |  | 2.65 | C=CCn1c(=O)c2cnc(Nc3ccc([C@H]4CC[C@@H](N(C)C)CC4)cc3)nc2n1-c1ccc2c(n1)C(C)(O)CCC2 (single isomer, unassigned) [Compound I-36-2] | 
786 | 224 | 10.6 | C=CCn1c(=O)c2cnc(Nc3ccc(N4C[C@@H]5CN(C(C)C6CC6)C[C@@H]5C4)cc3)nc2n1-c1ccc2c(n1)C(O)CC2 (stereo partly drawn) [Compound I-41] | 
 |  | 12.8 | C=CCn1c(=O)c2cnc(Nc3ccc(CCC(=O)N4CCCC4)cc3)nc2n1-c1ccc2c(n1)C(C)(O)CCC2 (stereo not drawn) [Compound I-17, 2-allyl-1-(8-hydroxy-8-methyl-5,6,7,8-tetrahydroquinolin-2-yl)-6-((4-(3-oxo-3-(pyrrolidin-1-yl)propyl)phenyl)amino)-1,2-dihydro-3H-pyrazolo[3,4-d]pyrimidin-3-one] | 
 |  | 4.91 | C=CCn1c(=O)c2cnc(Nc3ccc(CCCN(C)C)cc3)nc2n1-c1ccc2c(n1)C(O)CC2 (stereo not drawn) [Compound I-43] | 
 |  | 4.75 | C=CCn1c(=O)c2cnc(Nc3ccc([C@H]4CC[C@@H](N(C)C)CC4)cc3)nc2n1-c1ccc2c(n1)C(C)(O)CCC2 (single isomer, unassigned) [Compound I-36-1] | 
 |  | 4.41 | C=CCn1c(=O)c2cnc(Nc3ccc(N4CCC5(CC4)CN(C)C5)cc3)nc2n1-c1ccc2c(n1)C(O)CCC2 (stereo not drawn) [Compound I-20, 2-allyl-1-(8-hydroxy-5,6,7,8-tetrahydroquinolin-2-yl)-6-((4-(2-methyl-2,7-diazaspiro[3.5]nonan-7-yl)phenyl)amino)-1,2-dihydro-3H-pyrazolo[3,4-d]pyrimidin-3-one] | 
 |  | 3.68 | C=CCn1c(=O)c2cnc(Nc3ccc(N4CC5CC4CN5)cc3)nc2n1-c1ccc2c(n1)C(C)(O)CC2 (stereo not drawn) [Compound I-12, 6-((4-(2,5-diazabicyclo[2.2.1]heptan-2-yl)phenyl)amino)-2-allyl-1-(7-hydroxy-7-methyl-6,7-dihydro-5H-cyclopenta[b]pyridin-2-yl)-1,2-dihydro-3H-pyrazolo[3,4-d]pyrimidin-3-one] | 
 |  | 3.85 | C=CCn1c(=O)c2cnc(Nc3ccc(N4CCOCC4)cc3)nc2n1-c1ccc2c(n1)C(C)(O)CC2 (stereo not drawn) [Compound I-15] | 
 |  | 3.81 | C=CCn1c(=O)c2cnc(Nc3ccc(N4CCNCC4)cc3)nc2n1-c1ccc2c(n1)C(O)CCC2 (stereo not drawn) [Compound I-24] | 
 |  | 3.12 | C=CCn1c(=O)c2cnc(Nc3ccc(N4C[C@H]5CN(C)C[C@H]5C4)cc3)nc2n1-c1ccc2c(n1)C(O)CC2 (stereo partly drawn) [Compound I-31] | 
 |  | 3.58 | C=CCn1c(=O)c2cnc(Nc3ccc(N4CCC(N(C)C)CC4)cc3)nc2n1-c1ccc2c(n1)C(O)CCC2 (stereo not drawn) [Compound I-28, 2-allyl-6-((4-(4-(dimethylamino)piperidin-1-yl)phenyl)amino)-1-(8-hydroxy-5,6,7,8-tetrahydroquinolin-2-yl)-1,2-dihydro-3H-pyrazolo[3,4-d]pyrimidin-3-one formate] | 
 | 322 |  | C=CCn1c(=O)c2cnc(Nc3ccc(N4CC5(CC(N(C)C)C5)C4)cc3)nc2n1-c1ccc2c(n1)C(O)CC2 (stereo not drawn) [Compound I-42] | 
 |  | 2.03 | C=CCn1c(=O)c2cnc(Nc3ccc(N4CCNCC4)cc3)nc2n1-c1ccc2c(n1)C(C)(O)CCC2 (stereo not drawn) [Compound I-18, 2-allyl-1-(8-hydroxy-8-methyl-5,6,7,8-tetrahydroquinolin-2-yl)-6-((4-(piperazin-1-yl)phenyl)amino)-1,2-dihydro-3H-pyrazolo[3,4-d]pyrimidin-3-one] | 
 | 2900 | 9.69 | C=CCn1c(=O)c2cnc(Nc3ccc(CN4CCN(C)CC4)cc3)nc2n1-c1ccc2c(n1)C(O)CC2 (stereo not drawn) [Compound I-7] | 

SMILES | IC50 (COLO 205 cells) [nM] | IC50 (Hela cells) [nM] | IC50 (WEE1 kinase; read-out: WEE1 IC50) [nM] | IC50 (WEE1 kinase; WEE1 IC50, nM) [nM]
C=CCn1c(=O)c2cnc(Nc3ccc(N4C[C@@H]5CN(C6CCC6)C[C@@H]5C4)cc3)nc2n1-c1ccc2c(n1)C(O)CC2 (stereo partly drawn) [Compound I-38] | 451 | 134 | 2.43 | 
C=CCn1c(=O)c2cnc(Nc3ccc(N4CCN(C)CC4)cc3)nc2n1-c1ccc2c(n1)C(C)(O)CC2 (stereo not drawn) [Compound I-16, 2-allyl-1-(7-hydroxy-7-methyl-6,7-dihydro-5H-cyclopenta[b]pyridin-2-yl)-6-((4-(4-methylpiperazin-1-yl)phenyl)amino)-1,2-dihydro-3H-pyrazolo[3,4-d]pyrimidin-3-one] | 1620 | 316 |  | 3.99
